From the NIST ThermoML archive (doi:10.1016/j.fluid.2014.07.010) come the findings set out here.

± gives the expanded uncertainty stated by the source.

What is called vapor or sublimation pressure is the pressure of vapour in equilibrium with the condensed phase.

For this series the following is noted: Liquid, Ebulliometric method (Recirculating still).

Consider `CCc1cccs1` [2-ethylthiophene], for which the “vapor or sublimation pressure” value (407.15 K) is 101.33 ± 0.46 kPa.

Regarding `CCCCCCCC` [octane], the “vapor or sublimation pressure” value (398.57 K) is on record as 101.33 ± 0.46 kPa.
